The results in this text go back to patent US20080132505A1 (Glaxo Group Limited, priority 2004, published 2008).

Read-outs that look alike come from different tables or passages of the source. Some results are limits rather than exact numbers.

For this assay, the target named is human cannabinoid CB2 receptor (Homo sapiens, UniProt P34972). The assay is described as follows: Cannabinoid CB2 receptor agonist activity (yeast reporter assay, FDGlu fluorescence). It counts as cell-based. The settings on record: for Emax: read-out: efficacy value (Emax relative to HU210) at the cloned human cannabinoid CB2 receptor. The procedure, abridged: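 S. cerevisiae MMY23 expressing human CB2 with a Gpa1/Gαi3 chimeric G-protein, grown 24 h at 30 °C with agonist (1% DMSO) in selective media containing 10 mM 3-aminotriazole and FDGlu, pH 7.0. Fluorescein fluorescence (485/535 nm) fitted by four-parameter curve; Emax and EMR relative to HU210.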
Chain of human cannabinoid CB2 receptor (P34972 whole entry): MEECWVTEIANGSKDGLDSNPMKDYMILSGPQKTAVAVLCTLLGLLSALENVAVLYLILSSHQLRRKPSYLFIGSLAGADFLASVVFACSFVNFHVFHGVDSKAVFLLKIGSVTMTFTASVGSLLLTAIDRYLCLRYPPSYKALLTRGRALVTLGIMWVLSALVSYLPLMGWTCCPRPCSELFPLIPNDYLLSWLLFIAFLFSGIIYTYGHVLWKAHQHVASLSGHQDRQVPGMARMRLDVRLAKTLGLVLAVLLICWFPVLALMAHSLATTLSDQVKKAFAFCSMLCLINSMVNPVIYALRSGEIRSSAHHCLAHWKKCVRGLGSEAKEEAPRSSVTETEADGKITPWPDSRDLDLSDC

Setting [1] is: EC50 value at the cloned human cannabinoid CB2 receptor.

The term EC50 denotes the concentration that produces a half-maximal response. The Emax is the greatest response seen or fitted, relative to the assay's reference. For `O=C(NCC1CCCCC1)c1cnc(Nc2cccc(Cl)c2)nc1C(F)(F)F` [Example 4, 2-(3-Chlorophenylamino)-4-trifluoromethylpyrimidine-5-carboxylic acid cyclohexylmethylamide], the Emax was above 50%. In addition, the EC50 under setting [1] fell in the range of 20 to 300 nM. Regarding `CC(C)c1cc(Nc2ccc(C#N)cc2F)ncc1C(=O)NCC1CCCC1` [Example 751, 6-(4-Cyano-2-fluoro-phenylamino)-N-cyclopentylmethyl-4-isopropyl-nicotinamide], the maximal response (Emax) is above 50%. `O=C(NCC1CCCCC1)c1cnc(Nc2c(Cl)cccc2Cl)nc1C(F)(F)F` [Example 21, 2-(2,6-Dichlorophenylamino)-4-trifluoromethylpyrimidine-5-carboxylic acid cyclohexylmethyl-amide]: the Emax was above 50%. The compound also gave an EC50 under setting [1] of 20 to 300 nM. Take `N#Cc1cccc(Nc2ncc(C(=O)NCC3CCCCC3)c(C(F)(F)F)n2)c1` [Example 171, 2-(3-Cyanophenylamino)-4-trifluoromethyl-pyrimidine-5-carboxylic acid cyclohexylmethyl-amide]: the Emax is above 50%. Besides, the EC50 under setting [1] was 20 to 300 nM. For the compound `O=C(NCC1CCOCC1)c1cnc(Nc2cc(Cl)ccc2F)nc1C(F)(F)F` [Example 213, 2-(2-Fluoro-5-chloro-phenylamino)-4-trifluoromethyl-pyrimidine-5-carboxylic acid (tetrahydro-pyran-4-ylmethyl)-amide], the Emax is above 50%. The EC50 under setting [1] is 20 to 300 nM.

As for `O=C(NCC1CC1)c1cnc(Nc2cccc(Cl)c2)nc1C(F)(F)F` [Example 84, 2-(3-Chloro-phenylamino)-4-trifluoromethyl-pyrimidine-5-carboxylic acid cyclopropylmethyl-amide], the maximal effect (Emax) is above 50%. Under setting [1], this compound came in with an EC50 of 300 to 1000 nM. The matching figures for `O=C(NCC1CCCC1)c1cnc(Nc2cc(Cl)cc(Cl)c2)nc1C(F)(F)F` [Example 45, 2-(3,5-Dichlorophenylamino)-4-trifluoromethylpyrimidine-5-carboxylic acid cyclopentylmethyl-amide]: above 50% and 20 to 300 nM. Consider `COc1ccccc1Nc1ncc(C(=O)NCc2ccccc2)c(C(F)(F)F)n1` [Example 280, 2-(2-Methoxyphenylamino)-4-trifluoromethylpyrimidine-5-carboxylic acid benzyl-amide], for which the Emax is above 50%. The compound also yielded an EC50 under setting [1] of 20 to 300 nM. In the case of `O=C(NC[C@H]1CCCO1)c1cnc(Nc2cccc(Br)c2)nc1C(F)(F)F` [Example 80, 2-(3-bromophenylamino)-4-trifluoromethyl-pyrimidine-5-carboxylic acid [R-1-(tetrahydrofuran-2-yl)methyl]-amide], the maximal effect (Emax) is above 50%. Further, the EC50 under setting [1] lay within 300 to 1000 nM. On to `O=C(NCC1CCCCC1)c1cnc(Nc2cccc(Cl)c2Cl)nc1C(F)(F)F` [Example 15, 2-(2,3-Dichlorophenylamino)-4-trifluoromethylpyrimidine-5-carboxylic acid cyclohexylmethyl-amide], for which the Emax was above 50%. Besides, the 50% effective concentration (EC50) under setting [1] was 20 to 300 nM. The matching figures for `O=C(c1cnc(Nc2cccc(F)c2)nc1C(F)(F)F)N1CCOCC1` [Example 10, 1-[2-(3-Fluorophenylamino)-4-trifluoromethylpyrimidin-5-yl]-1-morpholin-4-yl-methanone]: above 50% and 20 to 300 nM.

With `O=C(NCC1CC1)c1cnc(Nc2cccc(Br)c2)nc1C(F)(F)F` [Example 240, 2-(3-Bromophenylamino)-4-trifluoromethyl-pyrimidine-5-carboxylic acid cyclopropylmethyl-amide], the Emax was above 50%. Further, under setting [1], the concentration for a half-maximal effect (EC50) is 20 to 300 nM.

Turning to `O=C(NCc1ccc(F)cc1)c1cnc(Nc2cccc(Cl)c2Cl)nc1C(F)(F)F` [Example 364, 2-(2,3-Dichloro-phenylamino)-4-trifluoromethyl-pyrimidine-5-carboxylic acid 4-fluoro-benzylamide], the half-maximal effective concentration (EC50) under setting [1] is 20 to 300 nM. Same read-out and setting: the value for `O=C(NCc1ccccc1)c1cnc(Nc2c(Cl)cccc2Cl)nc1C(F)(F)F` [Example 363, 2-(2,6-Dichloro-phenylamino)-4-trifluoromethyl-pyrimidine-5-carboxylic acid benzylamide] was 20 to 300 nM. Turning to `N#Cc1cc(Nc2ncc(C(=O)NCC3CCOCC3)c(C(F)(F)F)n2)ccc1Cl` [Example 111, 2-(4-Chloro-3-cyano-phenylamino)-4-tri-fluoromethyl-pyrimidine-5-carboxylic acid (tetrahydropyran-4-ylmethyl)-amide], the Emax is above 50%. Further, the 50% effective concentration (EC50) under setting [1] fell in the range of 300 to 1000 nM. For `O=C(NCC1CCC1)c1cnc(Nc2cccc(C(F)(F)F)c2F)nc1C(F)(F)F` [Example 252, 2-(2-Fluoro-3-trifluoromethyl-phenylamino)-4-trifluoromethyl-pyrimidine-5-carboxylic acid cyclobutylmethyl-amide], the Emax was above 50%. Also, under setting [1], the EC50 was 20 to 300 nM. For the compound `N#Cc1ccc(Nc2ncc(C(=O)NCc3ccccc3)c(C(F)(F)F)n2)cc1` [Example 292, 2-(4-Cyano-phenylamino)-4-trifluoromethyl-pyrimidine-5-carboxylic acid benzylamide], the maximal effect (Emax) is above 50%. The same compound showed an EC50 under setting [1] of 20 to 300 nM. Consider `O=C(NCc1ccc(F)cc1)c1cnc(Nc2ccc(F)c(Cl)c2)nc1C(F)(F)F` [Example 347, 2-(3-Chloro-4-fluoro-phenylamino)-4-trifluoromethyl-pyrimidine-5-carboxylic acid 4-fluoro-benzylamide], for which the EC50 under setting [1] lay in the range of 20 to 300 nM.

For `O=C(NCC1CCOCC1)c1cnc(Nc2cc(C(F)(F)F)cc(C(F)(F)F)c2)nc1C(F)(F)F` [Example 178, 2-(3,5-Bis-trifluoromethylphenylamino)-4-trifluoromethyl-pyrimidine-5-carboxylic acid (tetrahydropyran-4-ylmethyl)-amide], the Emax is above 50%. The same compound registered a half-maximal effective concentration (EC50) under setting [1] of 20 to 300 nM. As to `O=C(NCC1CCOCC1)c1cnc(Nc2cccc(Cl)c2F)nc1C(F)(F)F` [Example 212, 2-(2-Fluoro-3-chloro-phenylamino)-4-trifluoromethyl-pyrimidine-5-carboxylic acid (tetrahydro-pyran-4-ylmethyl)-amide], the EC50 (read-out: EC50 value at the cloned human cannabinoid CB2 receptor) lay in the range of 20 to 300 nM.

`O=C(NCc1ccc(Cl)cc1)c1cnc(Nc2cccc(Cl)c2)nc1C(F)(F)F` [Example 298, 2-(3-Chloro-phenylamino)-4-trifluoromethyl-pyrimidine-5-carboxylic acid 4-chloro-benzylamide]: the Emax was above 50%. Besides, the EC50 under setting [1] fell in the range of 300 to 1000 nM. The matching figures for `O=C(NCC1CCC1)c1cnc(Nc2ccc(OC(F)(F)F)c(Cl)c2)nc1C(F)(F)F` [Example 193, 2-(3-Chloro-4-trifluoromethoxyphenylamino)-4-trifluoromethyl-pyrimidine-5-carboxylic acid cyclobutylmethyl-amide]: above 50% and 20 to 300 nM. Under setting [1], `O=C(NCc1ccc(F)cc1)c1cnc(Nc2cccc(F)c2)nc1C(F)(F)F` [Example 288, 2-(3-Fluorophenylamino)-4-trifluoromethylpyrimidine-5-carboxylic acid 4-fluorobenzyl-amide] came in with an EC50 of 20 to 300 nM. `CN(Cc1ccccc1)C(=O)c1cnc(Nc2cccc(Br)c2)nc1C(F)(F)F` [Example 279, 2-(3-Bromophenylamino)-4-trifluoromethylpyrimidine-5-carboxylic acid N-benzyl-N-methylamide] returned a concentration giving a half-maximal response (EC50) under setting [1] of 20 to 300 nM.
